Test results as given in patent publication EP4678639A1, “SALT OF BENZIMIDAZOLE DERIVATIVE” (JW Pharmaceutical Corporation, priority 2023, dated 2024).
Counter-ions that a name gives are not always drawn. Each block holds one molecule with its values, some of them ahead of it.

Assays:
[1] = Photostability test, ultraviolet light (200 W·hr/m2) exposure
[2] = Solid-state accelerated stability test (40 ± 2 °C/RH 75 ± 5 %)
[3] = Solid-state stress stability test (temperature 60 °C)
[4] = Photostability test, visible light (1.2 Mlux·hr) exposure
[5] = Solid-state stress stability test (humidity 90 % RH)
[6] = Liquid stability comparative test (20 mg/mL in purified water, 40 °C, 24 hours, HPLC); format: physicochemical
Protocol: The analysis conditions are as follows.
Each sample was dissolved in purified water to prepare a solution with a concentration of 20 mg/mL, stored at an external temperature of 40 °C, and analyzed by HPLC at the initial time point and after 24 hours to measure purity, and the change in the generated degradant (Formula 4) was measured. The analysis of total related substances and degradants was performed by taking a liquid from a solution prepared at a concentration of 20 mg/mL, diluting it to a concentration of 4 mg/mL with the diluent of the related substance test method (HPLC), and measuring it as a test solution, and analyzing it according to the related substance test method (HPLC).

[7] = Table 10, UV 200 W·hr/m2, PE bag
[8] = 40 ± 2 °C / RH 75 ± 5 %, 1 month
[9] = Table 11 under heading Visible Light (1.2 Mlux-hr) Exposure Test

Molecule: Cc1nc2c(O[C@H]3CCOc4cc(F)cc(F)c43)cc(C(=O)N(C)C)cc2[nH]1 [Hydrobromide Salt]
After Ultraviolet Light Exposure (200 W hr/m2)(%) Degradant [1, 7]: 2.028%
After Ultraviolet Light Exposure (200 W hr/m2)(%) Total Related substances [1, 7]: 2.265%
Change (%) Degradant ([1]; Table 10, after UV exposure vs initial): 0.056%
Initial (%) Degradant ([1]; Table 10, initial): 1.972%
Initial (%) Total Related substances ([1]; Table 10, initial): 2.173%
After 1 Month (%) Degradant [2, 8]: 2.188%
After 1 Month (%) Total Related substances [2, 8]: 2.519%
Change (%) Degradant ([2]; 40 ± 2 °C / RH 75 ± 5 %, 1 month vs initial): 0.216%
Initial (%) Total Related substances ([2]; Table 7, initial): 2.173%
Initial (%) Degradant ([2]; Table 7, initial, degradant of Formula 4): 1.972%
increase in total related substances after 1 month ([2]; accelerated stability): ≥ 0.3%
total related substances increased after 1 month ([3]; 60 °C): ≥ 5.0%
After 1 Month (%) Degradant ([3]; 60 °C, 1 month): 7.787%
After 1 Month (%) Total Related substances ([3]; 60 °C, 1 month): 8.905%
change in appearance, change in the color of the solid ([3]; 60 °C, 1 month): change in appearance
Change (%) Degradant ([3]; 60 °C, 1 month vs initial): 5.815%
Remarks ([3]; 60 °C, 1 month, appearance): Discolorat ion
Initial (%) Degradant ([3]; Table 8, initial): 1.972%
Initial (%) Total Related substances ([3]; Table 8, initial): 2.173%
Remarks ([4]; Table 11, after exposure, appearance): Discolorat ion
Initial (%) Degradant ([4]; Table 11, initial): 1.972%
Initial (%) Total Related substances ([4]; Table 11, initial): 2.173%
After (%) Degradant [4, 9]: 1.956%
After (%) Total Related substances [4, 9]: 2.227%
changes in appearance ([4]; visible light exposure): changes in appearance
After 1 Month (%) Degradant ([5]; 90 % RH, 1 month): 3.698%
After 1 Month (%) Total Related substances ([5]; 90 % RH, 1 month): 3.922%
Change (%) Degradant ([5]; 90 % RH, 1 month vs initial): 1.726%
Initial (%) Degradant ([5]; Table 9, initial): 1.972%
Initial (%) Total Related substances ([5]; Table 9, initial): 2.173%

Molecule: Cc1nc2c(O[C@H]3CCOc4cc(F)cc(F)c43)cc(C(=O)N(C)C)cc2[nH]1 [Hydrochloride Salt (Amorphous Form)]
Amount of Change Degradant (%) [6]: 0.21%
After 24 hours Purity (%) ([6]; 20 mg/mL in purified water, 40 °C, 24 hours): 99.69%
Initial Purity (%) ([6]; 20 mg/mL in purified water, initial time point): 99.94%
After Ultraviolet Light Exposure (200 W hr/m2)(%) Total Related substances [1, 7]: 0.313%
Initial (%) Total Related substances ([1]; Table 10, initial): 0.207%
After 1 Month (%) Total Related substances [2, 8]: 0.467%
Initial (%) Total Related substances ([2]; Table 7, initial): 0.207%
Change in Quality (%) Accelerated (4 weeks) Purity ([2]; Table 12 summary): -0.260%
After 1 Month (%) Total Related substances ([3]; 60 °C, 1 month): 1.536%
Initial (%) Total Related substances ([3]; Table 8, initial): 0.207%
Change in Quality (%) 60 °C (4 weeks) Purity ([3]; Table 12 summary): -1.329%
Initial (%) Total Related substances ([4]; Table 11, initial): 0.207%
After (%) Total Related substances [4, 9]: 0.637%
After 1 Month (%) Total Related substances ([5]; 90 % RH, 1 month): 0.335%
change ([5]; 90 % RH, 1 month): ≤ 0.15%
Initial (%) Total Related substances ([5]; Table 9, initial): 0.207%

solid precipitation / solution state ([6]; stored at 40 °C for 24 hours): a solid precipitated
absorb moisture and deliquesce / melted ([5]; 90 % RH): deliquesced
Molecule: maleate
